{"source": "patent US20230321063A1", "about": "“COMPOSITIONS AND METHODS TO REDUCE NEUROINFLAMMATION” (Seattle Children's Hospital d/b/a Seattle Children's …, priority 2020, published 2023)", "key": {"[1]": {"system": "control and Ndufs4(KO) mice", "experiment": "Plasma ALT and AST enzymatic activity assays", "assay_type": "in vivo, mouse", "settings": "300 mg/kg/day, both genotypes", "description": "Plasma ALT and AST measures. Small volumes (5-10 μL) of blood were collected using tail-prick and heparinized microhematocrit tubes (Fisher Scientific cat. #22-362566), placed on ice in 15 mL sample tubes, then moved (by pipette) into 1.5 mL microcentrifuge tubes and stored at −80° C. until used for ALT and AST enzymatic assays. ALT and AST were quantified using colorimetric enzymatic activity assay kits (Sigma, cat. #'s MAK052 and MAK055, respectively) according to manufacturer recommendations. Absorbance was measured on a NanoDrop 1000 (ThermoScientific)."}, "[2]": {"system": "non-lesion CNS tissue in Ndufs4(KO) mice", "experiment": "Brain immunological staining: microglia and astrocytes in cortex and brainstem outside of overt lesions", "assay_type": "in vivo, mouse", "settings": "300 mg/kg/day", "description": "Brain immunological staining and microscopy. Brains were fixed for 48 hours in 10% formalin at 4° C. Following fixation, brains were moved to a cryoprotectant solution (30% sucrose, 1% DMSO, 100 μM glycine, 1×PBS, 0.45 μm filtered, pH 7.5), and stored for over 48 hours, until the fixed tissues sank to the bottom. Tissues were then placed in OCT media (Tissue-Tek OCT compound, Sakura 0004348-01), frozen in cryoblock holders on dry ice, and stored at −80° C. until sectioned for staining. Cryoblocks were cut at 50 μm thickness using a Leica CM30505 cryostat set at −40° C. Slices were moved to 1×PBS and stored at 4° C. until used for staining. Prior to staining, slices were mounted on slides and briefly dried to adhere.\nAntibody staining was performed as follows: slides were first incubated in an antigen retrieval and permeabilization buffer (0.05% Triton X-100, 50 μM digitonin, 10 mM Tris-HCl, 1 mM EDTA, pH 9.0) at 60° C. overnight in a white-light LED illuminated box (to promote photobleaching of tissue autofluorescence). To reduce formaldehyde induced background fluorescence, slides were treated with sodium borohydride in ice cold PBS, added at 1 mg/mL immediately before incubation, on ice for 30 min, then moved to 10 mM glycine 1×PBS, pH 7.4, for 5 min at room temperature. Lipid background fluorescence was then blocked by incubating slides in 0.2 μm filtered Sudan Black B solution (5 mg/mL in 70% ethanol) overnight at room temperature. Slides were then rinsed twice, 5 min each, in 1×PBS. Excess fluid was wiped from the slide, and the tissue was circled using Liquid Blocker PAP pen (Fisher Scientific, NC9827128) to hold staining solutions. Slides were blocked for 15 min at room temperature in 1×PBS with 10% rabbit serum (Gibco, 16120-099) then stained overnight at 4° C. in a mixture of rabbit anti-IBA1-fluorochrome 635 conjugated (WAKO 013-26471) at 1:300, mouse anti-GFAP, Alexa555 conjugated (Cell Signaling, 3656S) at 1:300, and DAPI (Sigma, D9542) at 1 μg/mL. […]"}, "Ndufs4(KO) mice [3]": {"system": "Ndufs4(KO) mice", "experiment": "Respiratory measurements by whole-body plethysmography", "assay_type": "in vivo, mouse", "settings": "300 mg/kg/day", "description": "Respiratory measurements. Breathing parameters were recorded from alert, unrestrained, adult (P60) mice using whole-body plethysmography. Paired 300 ml recording and reference chambers were continuously ventilated (150 ml/min) with either normal air (79% nitrogen and 21% oxygen) or a hypercapnic gas mixture (74% nitrogen, 21% oxygen, and 5% CO2). Pressure differences between the recording and reference chambers were measured (Buxco Respiratory Products) and digitized (Axon Instruments) to visualize respiratory pattern, and simultaneous video recordings were performed to differentiate resting breathing activity from exploratory sniffing and grooming behaviors. Untreated and treated (pexidartinib 300 mg/kg/day) control and Ndufs4(KO) mice were allowed to acclimate to the chambers for 30-40 min prior to acquisition of 35 min of respiratory activity in normal air. The respiratory response to hypercapnia was then tested by ventilating the chambers with hypercapnic gas for 15 min. Respiratory frequency, and breath-to-breath irregularity scores (irreg.score=ABS((N-(N−1))/N)) of frequency and amplitude (peak inspiratory airflow) were quantified during periods of resting breathing (pClamp10 software). During hypercapnic challenges, only data during the final 5 min of the 15 min period were analyzed. […]"}, "Ndufs4(KO) mice [4]": {"system": "Ndufs4(KO) mice", "experiment": "Longitudinal assessment of neurological disease symptoms (clasping, ataxia, circling)", "assay_type": "in vivo, mouse", "description": "Longitudinal assessments of neurological disease symptoms. Clasping, ataxia, and circling were assessed by visual scoring, as previously described. As disease progresses in the Ndufs4(KO) mice animals display intermittent/transient improvement of symptoms. […] For observational assessments, lab-wide quality control discussions occurred frequently to ensure consistency between technicians/researchers. Technicians contributed equally to each treatment group to minimize any potential bias between individuals."}, "[5]": {"settings": "cited from earlier work"}, "Ndufs4(KO) mice [6]": {"system": "Ndufs4(KO) mice", "experiment": "Point-of-care blood glucose by age", "assay_type": "in vivo, mouse", "from_the_text": "Point-of-care glucose and lactate testing. Blood glucose and lactate measurements were collected using point-of-care meters (Prodigy Autocode® glucose meter, product #51850-3466188, Prodigy® Diabetes Care, LLC, Charlotte, NC; lactate assay meter, product #40828, Nova Biomedical, Waltham, MA) and the tail-prick method, as previously described (Stokes et al. Elife 2021; 10:e65400)."}}, "data": [{"smiles": "FC(F)(F)c1ccc(CNc2ccc(Cc3c[nH]c4ncc(Cl)cc34)cn2)cn1", "note": "[pexidartinib, 5-[(5-chloro-1H-pyrrolo[2,3-b]pyridin-3-yl)methyl]-N-[[6-(trifluoromethyl)pyridin-3-yl]methyl]pyridin-2-amine]", "values": [{"measurement": "ALT level", "setting": "[1]", "value": "significantly elevated"}, {"measurement": "AST level", "setting": "[1]", "value": "significantly elevated"}, {"measurement": "astrocyte numbers in non-lesion CNS tissue", "setting": "[2]", "value": "rescued to control levels"}, {"measurement": "microglia numbers in non-lesion CNS tissue", "setting": "[2]; beyond that of untreated control animals", "value": "near complete depletion of microglia"}, {"measurement": "astrocytosis and microgliosis in non-lesion CNS tissue", "setting": "[2]; cortex and brainstem outside overt lesions", "value": "prevented both forms of gliosis"}, {"measurement": "respiratory dysfunction in normal air", "setting": "Ndufs4(KO) mice [3]; P60", "value": "completely rescued"}, {"measurement": "respiratory response to increased CO2", "setting": "Ndufs4(KO) mice [3]; P60, 5% CO2", "value": "completely rescued"}, {"measurement": "clasping, ataxia, circling endpoints compared with mTOR inhibition", "setting": "Ndufs4(KO) mice [4]; 200 mg/kg/day", "value": "roughly matched mTOR inhibition"}, {"measurement": "clasping, ataxia, circling endpoints compared with mTOR inhibition", "setting": "Ndufs4(KO) mice [4]; 300 mg/kg/day", "value": "performed substantially better"}, {"measurement": "neurologic disease onset and severity as measured by clasping", "setting": "Ndufs4(KO) mice [4]; 100, 200, and 300 mg/kg/day", "value": "affect neurologic disease onset and severity"}, {"measurement": "onset of symptoms: forelimb clasping, ataxia, and circling", "setting": "Ndufs4(KO) mice [4]; Ndufs4(KO) mice vs untreated", "value": "dose-dependently delayed the onset and reduced overall incidence"}, {"measurement": "liver damage", "setting": "[5]; patients", "value": "known to cause liver damage"}, {"measurement": "hair color in humans", "setting": "[5]; reports in humans", "value": "hair whitening in humans"}, {"measurement": "hypoglycemia (blood glucose)", "setting": "Ndufs4(KO) mice [6]", "value": "prevented"}]}]}
